Experimental findings from patent US7585875B2, “Substituted pyrazolo[1,5-a]pyridine compounds and their methods of use” (Avigen, Inc., priority 2006, dated 2009) are described below.

Where a name gives a salt, the structure may show the parent alone.

In assay [1] the test system is mechanical allodynia after chronic constriction injury (CCI) to the sciatic nerve. The assay is described as follows: Mechanical allodynia by response to von Frey fibers, rat chronic constriction injury (CCI) model. It is filed as in vivo, male Sprague-Dawley rats. Particulars: 2 hr post dosing. An excerpt:
Chronic Constriction Injury: Heat and cold allodynia responses as well as mechanical allodynia sensations can be evaluated as described below in rats having a chronic constriction injury (CCI). A unilateral mononeuropathy is produced in rats using the chronic constriction injury model described in Bennett et al., Pain (1988) 33:87-107. CCI is produced in anesthetized rats as follows. The lateral aspect of each rat's hind limb is shaved and scrubbed with Nolvasan. Using aseptic techniques, an incision is made on the lateral aspect of the hind limb at the mid-thigh level. The biceps femoris is bluntly dissected to expose the sciatic nerve. On the right hind limb of each rat, four loosely tied ligatures (for example, Chromic gut 4.0; Ethicon, Johnson and Johnson, Somerville, N.J.) are made around the sciatic nerve approximately 1-2 mm apart. On the left side of each rat, an identical dissection is performed except that the sciatic nerve is not ligated (sham). The muscle is closed with a continuous suture pattern with, e.g., 4-0 Vicryl (Johnson and Johnson, Somerville, N.J.) and the overlying skin is closed with wound clips. The rats are ear-tagged for identification purposes and returned to animal housing.
To induce allodynia, male Sprague-Dawley rats underwent chronic constriction injury (CCI) to the sciatic nerve as described by Bennett and Xie, Pain 1988; 33(1):87-107. The plantar surface of the hind paws was stimulated with von Frey filaments (Stoelting) to induce a withdrawal response by blinded personnel. The bending force of fiber required to induce a 50% withdrawal response was calculated following CCI surgery (pre-dosing baseline). N=5-6 allodynic rats received a single intraperitoneal administration of test compound or vehicle. Two hours post-dosing, 50% paw withdrawal threshold was determined again by blinded testers using von Frey filaments. The change in 50% withdrawal threshold relative to pre-dosing baseline is reported in Table 2 for various substituted pyrazolo[1,5-a]pyridine compounds of the invention.

In assay [2] the target is phosphodiesterase (PDE) enzyme derived from bovine brain. Kind of assay: Inhibition of PDE (PDELight kit, cAMP substrate). It is filed as biochemical. Particulars: PDE from brain extract, cAMP as substrate. As to the method:
In a 96-well plate, phosphodiesterase (PDE) enzyme (0.5-1 mU/well) derived from bovine brain (Sigma) was combined with 5 uM cAMP substrate (Sigma). Test compounds (0-200 uM) or vehicle (0.5% DMSO) were added to the enzyme/substrate and incubated for 1 hour. Using a PDELight® kit (Cambrex), the amount of AMP produced in the reaction from the hydrolysis of cAMP was quantified using PDELight AMP Detection Reagent which converts the AMP directly to ATP. The assay uses luciferase, which catalyses the formation of light from the newly formed ATP and luciferin. The luminescence was read on a Victor Light 1420 luminometer. IC50 calculations were plotted using a nonlinear regression curve fit.

In general, IC50 refers to the concentration at which inhibition is half-maximal. Read a low IC50 as greater potency. In the case of `CC(C)c1nn2ccccc2c1C(=O)C(N)c1ccccc1` (stereo not shown) [Compound 1039, 2-amino-1-(2-isopropylpyrazolo[1,5-a]pyridin-3-yl)-2-phenylethanone], the “Mechanical Allodynia ΔWT (change from pre-dosing 50% withdrawal threshold)” value in assay [1] (10 mg/kg IP) was 0.05 grams. Also, half-maximal inhibition in assay [2] (IC50) required 8.2 µM.

For `CCC(=O)c1c(CC)nn2ccccc12` [Compound 1040, 1-(2-ethylpyrazolo[1,5-a]pyridin-3-yl)propan-1-one], the “Mechanical Allodynia ΔWT (change from pre-dosing 50% withdrawal threshold)” value in assay [1] (10 mg/kg IP) stood at 0.12 grams. In assay [2], half-maximal inhibition (IC50) was put at 27.1 µM.

As to `CC(C)c1nn2ccccc2c1C(=O)C(C)N1CCOCC1` (stereo not shown) [Compound 1034, 1-(2-isopropylpyrazolo[1,5-a]pyridin-3-yl)-2-morpholinopropan-1-one hydrochloride], the “Mechanical Allodynia ΔWT (change from pre-dosing 50% withdrawal threshold)” value in assay [1] (10 mg/kg IP) is 10 mg/kg: 1.71 grams; in assay [1] (20 mg/kg IP), 20 mg/kg: 0.54 grams. This molecule also returned an IC50 in assay [2] of 43.3 µM.

As to `CC(C)c1nn2ccccc2c1C(=O)C(C)N1CCNCC1` (stereo not shown) [Compound 1037, 1-(2-isopropylpyrazolo[1,5-a]pyridin-3-yl)-2-(piperazin-1-yl)propan-1-one hydrochloride], the “Mechanical Allodynia ΔWT (change from pre-dosing 50% withdrawal threshold)” value in assay [1] (10 mg/kg IP) is recorded as 0 grams. This molecule also gave an IC50 in assay [2] greater than 200 µM.

`CC(C)c1nn2ccccc2c1C(=O)C(C)N(C)Cc1ccccc1` (stereo not shown) [Compound 1041, 2-(benzyl(methyl)amino)-1-(2-isopropylpyrazolo[1,5-a]pyridin-3-yl)propan-1-one]: the “Mechanical Allodynia ΔWT (change from pre-dosing 50% withdrawal threshold)” value in assay [1] (10 mg/kg IP) is 0.22 grams. For the same molecule, the IC50 in assay [2] worked out at 21.5 µM.

On to `CC(C)C(=NO)c1c(-c2ccc(Cl)cc2)nn2ccccc12` [Compound 1025, 1-(2-(4-chlorophenyl)pyrazolo[1,5-a]pyridin-3-yl)-2-methylpropan-1-one oxime], for which the “Mechanical Allodynia ΔWT (change from pre-dosing 50% withdrawal threshold)” value in assay [1] (10 mg/kg IP) worked out at 0.81 grams. The molecule also yielded an IC50 in assay [2] of 23 µM.

In the case of `CC(C)C(=O)c1c(C(C)(C)O)nn2ccccc12` [compound 1003, 1-(2-(2-hydroxypropan-2-yl)pyrazolo[1,5-a]pyridin-3-yl)-2-methylpropan-1-one], the “Mechanical Allodynia ΔWT (change from pre-dosing 50% withdrawal threshold)” value in assay [1] (10 mg/kg IP) is listed as 0 grams. For the same molecule, the IC50 in assay [2] is greater than 100 µM.

As to `CC(C)C(=NOC(N)=O)c1c(-c2ccc(Cl)cc2)nn2ccccc12` [Compound 1026, 1-(2-(4-chlorophenyl)pyrazolo[1,5-a]pyridin-3-yl)-2-methylpropan-1-one O-carbamoyl oxime], the “Mechanical Allodynia ΔWT (change from pre-dosing 50% withdrawal threshold)” value in assay [1] (10 mg/kg IP) stood at 1.14 grams. Besides, the IC50 in assay [2] was determined as 27.7 µM.

As for `COc1ccc(-c2nn3ccccc3c2C(=O)C(C)C)cc1` [Compound 1021, 1-(2-(4-methoxyphenyl)pyrazolo[1,5-a]pyridin-3-yl)-2-methylpropan-1-one], the “Mechanical Allodynia ΔWT (change from pre-dosing 50% withdrawal threshold)” value in assay [1] (10 mg/kg IP) came to 0.45 grams. The molecule further yielded an IC50 in assay [2] greater than 200 µM.

Molecule `CC(C)C(=NOC(N)=O)c1c(-c2ccc(F)cc2)nn2ccccc12` [Compound 1020, 1-(2-(4-fluorophenyl)pyrazolo[1,5-a]pyridin-3-yl)-2-methylpropan-1-one O-carbamoyl oxime] had an IC50 in assay [2] greater than 200 µM.

As to `COc1ccc(-c2nn3ccccc3c2C(=NO)C(C)C)cc1` [Compound 1022, 1-(2-(4-methoxyphenyl)pyrazolo[1,5-a]pyridin-3-yl)-2-methylpropan-1-one oxime], the “Mechanical Allodynia ΔWT (change from pre-dosing 50% withdrawal threshold)” value in assay [1] (10 mg/kg IP) was found to be 0 grams. In addition, the IC50 in assay [2] is 23.9 µM.

`CC(NC1CC1)C(=O)c1c(C(C)C)nn2ccccc12` (stereo not shown) [Compound 1045, 2-(cyclopropylamino)-1-(2-isopropylpyrazolo[1,5-a]pyridin-3-yl)propan-1-one hydrochloride]: the “Mechanical Allodynia ΔWT (change from pre-dosing 50% withdrawal threshold)” value in assay [1] (10 mg/kg IP) was 0 grams. The same molecule displayed an IC50 in assay [2] of 61.1 µM.

The molecule `COc1ccc(-c2nn3ccccc3c2C(=NOC(N)=O)C(C)C)cc1` [Compound 1023, 1-(2-(4-methoxyphenyl)pyrazolo[1,5-a]pyridin-3-yl)-2-methylpropan-1-one O-carbamoyl oxime] showed an IC50 in assay [2] of 156 µM.
